Experimental data from PubChem BioAssay AID504629 (National Center for Advancing Translational Sciences (NCATS), 2011).

Tested on: Caco-2 monolayer permeability, A-to-B, LC-MS/MS
Experiment: Inhibitors of HPGD: Caco-2 Cell Permeability Profiling
Conditions: stronger effect = higher value
Source text: Human 15-Hydroxyprostaglandin dehydrogenase (HPGD) catalyzes the inactivation of prostaglandin E2, and plays a major role in cancer biology by antagonizing the oncogenic potential of cyclooxygenase type 2 (COX2). Assays are available, based on absorbance/fluorescence increase of NADH with the substrate 15-OH prostaglandin E2. This bioassays provides profiling data on Caco-2 cell permeability of leads compounds developed for the HPGD project. This in vitro model is often predictive of in vivo absorption of the compound across the intestinal lining by using a Caco2-cell line and measuring the compound's rate of transport […]. NIH Chemical Genomics Center [NCGC] Structural Genomics Consortium [SGC]
1. Buffer Preparation: Prepare 1M HEPES: add 23.83g HEPES to 100ml of 0.85% NaCl Prepare HBSS+ buffer: add 12.8ml of 1M HEPES in 0.85% NaCl to 500ml HBSS buffer. 2. Take out the compounds from -80 degrees C, ultrasonicate or pre-warm for a few minutes to thaw the compounds. 3. […] The T0, LY and T90, LY plates are read by FlexStation 3 at excitation of 485 nm and emission of 535 nm to determine LY permeability. […]

permeability Papp | Structure (SMILES)
21 10^-6 cm/s | Cc1cc(-c2nnc3n2CCCCC3)c(C)n1-c1ccccc1
15 10^-6 cm/s | Cc1cccc(-n2cnc3cc(C(=O)N4CCCCC4)ccc32)c1
